Literature values in patent US20110144207A1, “ARYL ALKYL CARBOXYLIC ACID SALTS, PROCESS FOR PREPARATION AND DOSAGE FORMS” (SHASUN CHEMICALS AND DRUGS LIMITED, priority 2008, published 2011).
Counter-ions that a name gives are not always drawn. Like-named read-outs stand apart in the source and are kept apart here. Blank lines part the entries; values can stand above or below the compound they belong to.

Assays:
[1] = as described in EP application 1149828
[2] = compared with conventional ibuprofen

hygroscopic property ([1]; sodium salt): hygroscopic
Structure (SMILES): O=C(O)Cc1ccccc1Nc1c(Cl)cccc1Cl [diclofenac sodium salt]

Cmax (peak concentration) [2]: significantly higher | tmax (time to peak concentration) [2]: earlier
Structure (SMILES): CC(C)Cc1ccc(C(C)C(=O)O)cc1.O.O.[Na] (stereo not shown) [ibuprofen sodium dihydrate, Ibuprofen Sodium Dihydrate]

hygroscopic property ([1]; sodium salt hemihydrate): no hygroscopic property
Structure (SMILES): O=C(O)Cc1ccccc1Nc1c(Cl)cccc1Cl [diclofenac sodium salt hemihydrate]
